Source: patent US12391680B2, “Compounds and compositions for the treatment of cystic fibrosis” (FONDAZIONE ISTITUTO ITALIANO DI TECNOLOGIA, priority 2019, dated 2025)

Key:
mutant CFTR = mutant CFTR (Homo sapiens, UniProt P13569); test: Fluorescence assay for CFTR activity (halide-sensitive YFP, HS-YFP); type: cell-based; conditions: CFBE41o- and FRT cells with stable expression of mutant CFTR
Procedure: Mutant CFTR activity was determined with the functional assay based on the halide-sensitive yellow fluorescent protein, HS—YFP (Galietta et al., FEBS Lett 499:220-224, 2001). CFBE41o- and FRT cells with stable expression of mutant CFTR and HS—YFP were plated on clear-bottom 96-well black microplates (Code 3603, Corning Life Sciences) at a density of 50,000 cells/well and kept at 37° C. in 5% CO2 for 24 hours.
For the corrector assay, cells were treated for further 24 hours with test compounds, vehicle (DMSO), or the positive control VX-809. After treatment, the culture medium was removed and cells in each well were stimulated for 30 min at 37° C. with 60 μL PBS (containing 137 mM NaCl, 2.7 mM KCl, 8.1 mM Na2HPO4, 1.5 mM KH2PO4, 1 mM CaCl2, and 0.5 mM MgCl2) plus forskolin (20 μM) and genistein (50 μM).
For determination of potentiator activity on F508del-CFTR, cells were incubated for 24 hours at 27° C. to allow trafficking of the mutant protein to plasma membrane. Cells were then stimulated with for 30 min with PBS containing forskolin (20 μM) plus the compound to be tested at the desired concentration. For determination of potentiator activity on G551D-CFTR or G1349D-CFTR, cells were directly stimulated with forskolin plus test compound without previous incubation at low temperature. At the time of assay, microplates carrying CFBE41o- or FRT cells were transferred to microplate readers (BMG Labtech) equipped with high-quality excitation (HQ500/20×: 500±10 nm) and emission (HQ535/30M: 535±15 nm) filters for YFP (Chroma Technology). The assay consisted of a continuous 14 s fluorescence reading with 2 s before and 12 s after injection of an iodide-containing solution (165 μL of a modified PBS containing I^− instead of Cl^−; final I^− concentration in the well: 100 mM). Data were normalized to the initial background-subtracted fluorescence. Enhanced CFTR activity, induced by correctors and/or potentiators, results in accelerated I^− influx that in turn causes faster HS—YFP quenching (Pedemonte et al., Mol Pharmacol 68:1736-1746, 2005; Pedemonte et al., J Clin Invest 115:2564-2571, […]). To determine fluorescence quenching rate associated with I^− influx, the final 10 s of data for each well were fitted with an exponential function to extrapolate initial slope (dF/dt).
EC50 obtained are illustrated in Table 1 wherein+: EC50>2 μM; ++: 1.0 μM <EC50<2 μM; +++: EC50<1 μM.

F508del-CFTR = F508del-CFTR (Homo sapiens, UniProt P13569, DEL508-508); test: Short-circuit current recordings on human bronchial epithelial cells from CF patients (F508del/F508del); type: cell-based; design: Human bronchial epithelial (HBE) cells obtained from CF patients (F508del/F508del genotype); endogenous in cells; host or cells: primary human bronchial epithelial cells from CF patients, F508del/F508del; conditions: HBE cells F508del/F508del, 24 hrs treatment, CPT-cAMP plus VX-770 minus CFTRinh-172
Procedure: Human bronchial epithelial (HBE) cells obtained from CF patients (F508del/F508del genotype) were plated on Snapwell inserts (Code 3801, Corning Life Sciences) at a density of 500,000 cells per insert. Cells were cultured for two weeks in a differentiating medium whose compositions has been previously described (Scudieri et al., J Physiol 590:6141-6155, 2012). For the first week, the medium was kept on both apical and basolateral sides of inserts (submerged condition). For the second week, the apical medium was removed (air-liquid condition, ALC). To test the activity of correctors, cells were treated for 24 hrs with compounds dissolved in the basolateral medium. After treatment, Snapwell inserts carrying differentiated bronchial epithelia were mounted in a vertical chamber resembling an Ussing system with internal fluid circulation. Both apical and basolateral hemichambers were filled with 5 mL of a Krebs bicarbonate solution containing (in mM): 126 NaCl, 0.38 KH2PO4, 2.13 K2HPO4, 1 MgSO4, 1 CaCl2, 24 NaHCO3, and 10 glucose. Both sides were continuously bubbled with a gas mixture containing 5% CO2-95% air and the temperature of the solution was kept at 37° C. The transepithelial voltage was short-circuited with a voltage-clamp (DVC-1000, World Precision Instruments) connected to the apical and basolateral chambers via Ag/AgCl electrodes and agar bridges (1 M KCl in 1% agar). The offset between voltage electrodes and the fluid resistance were canceled before experiments. The short-circuit current was recorded with a PowerLab 4/25 (ADInstruments) analogical to digital converter connected to a Macintosh computer. […] The difference between the current measured with CPT-cAMP plus potentiator and the current remaining after CFTRinh-172 treatment (ΔICFTR) was taken as the parameter reflecting F508del-CFTR expression in the apical membrane.
Activities of selected compounds on HBE cells (expressed as ΔICFTR) are illustrated in Table 3 wherein+: ΔICFTR<2.0 μA; ++: 2.0 μA<ΔICFTR<3.0 μA; +++: ΔICFTR >3.0 μA.

mutant CFTR, sequence (P13569 with tags, fused parts or gaps DEL508-508): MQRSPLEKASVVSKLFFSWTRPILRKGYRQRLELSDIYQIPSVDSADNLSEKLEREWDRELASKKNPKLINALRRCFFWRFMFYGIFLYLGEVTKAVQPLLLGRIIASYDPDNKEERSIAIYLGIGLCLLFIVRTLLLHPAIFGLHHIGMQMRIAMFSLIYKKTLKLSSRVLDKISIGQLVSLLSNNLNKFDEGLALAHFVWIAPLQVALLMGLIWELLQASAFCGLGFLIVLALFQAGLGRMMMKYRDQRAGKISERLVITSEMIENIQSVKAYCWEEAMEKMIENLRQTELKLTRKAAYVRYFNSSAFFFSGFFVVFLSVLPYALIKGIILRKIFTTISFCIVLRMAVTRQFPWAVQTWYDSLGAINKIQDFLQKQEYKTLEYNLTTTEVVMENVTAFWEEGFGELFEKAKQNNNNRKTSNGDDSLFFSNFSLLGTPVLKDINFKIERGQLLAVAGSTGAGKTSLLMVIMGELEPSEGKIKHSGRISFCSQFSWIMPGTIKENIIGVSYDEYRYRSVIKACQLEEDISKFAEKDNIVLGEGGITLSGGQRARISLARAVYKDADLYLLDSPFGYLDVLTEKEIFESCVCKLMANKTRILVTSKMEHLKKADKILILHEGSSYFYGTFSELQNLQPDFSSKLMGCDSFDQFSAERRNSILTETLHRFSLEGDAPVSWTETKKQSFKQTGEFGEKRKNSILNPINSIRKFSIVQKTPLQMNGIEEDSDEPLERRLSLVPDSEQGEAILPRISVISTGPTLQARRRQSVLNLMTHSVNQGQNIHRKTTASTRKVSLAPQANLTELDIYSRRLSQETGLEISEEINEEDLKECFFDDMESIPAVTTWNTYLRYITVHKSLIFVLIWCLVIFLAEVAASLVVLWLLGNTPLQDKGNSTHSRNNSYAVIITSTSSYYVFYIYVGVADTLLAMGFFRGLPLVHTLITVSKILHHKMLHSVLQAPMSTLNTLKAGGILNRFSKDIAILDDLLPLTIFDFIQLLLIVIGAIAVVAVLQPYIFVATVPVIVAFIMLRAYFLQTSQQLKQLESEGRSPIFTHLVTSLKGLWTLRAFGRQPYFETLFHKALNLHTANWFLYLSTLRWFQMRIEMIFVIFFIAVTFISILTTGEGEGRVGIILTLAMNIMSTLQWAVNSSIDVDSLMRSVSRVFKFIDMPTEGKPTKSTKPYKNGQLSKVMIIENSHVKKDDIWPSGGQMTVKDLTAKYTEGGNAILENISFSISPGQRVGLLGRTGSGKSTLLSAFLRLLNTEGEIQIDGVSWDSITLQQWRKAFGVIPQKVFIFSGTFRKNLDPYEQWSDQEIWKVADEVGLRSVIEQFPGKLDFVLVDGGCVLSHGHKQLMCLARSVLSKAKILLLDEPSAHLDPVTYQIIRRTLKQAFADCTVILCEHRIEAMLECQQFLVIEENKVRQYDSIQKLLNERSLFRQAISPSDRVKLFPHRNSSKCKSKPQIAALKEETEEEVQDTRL
F508del-CFTR, sequence (P13569 with tags, fused parts or gaps DEL508-508): as above

SMILES | EC50 (mutant CFTR) | activity (ΔICFTR) (F508del-CFTR)
NC(=O)c1sc2ccccc2c1C1CN(S(=O)(=O)c2ccc3c(c2)OCCO3)CCO1 (racemic) [compound 018, rac-3-[(4-(2,3-dihydro-1,4-benzodioxin-6-ylsulfonyl)morpholin-2-yl]benzothiophene-2-carboxamide] | < 1000 nM | ++ (2.0 μA<ΔICFTR<3.0 μA)
Cc1cc(S(=O)(=O)N2CCOC(c3c(C(N)=O)sc4ccccc34)C2)ccc1C(F)(F)F (racemic) [compound 044, rac-3-[4-[3-methyl-4-(trifluoromethyl)phenyl]sulfonylmorpholin-2-yl]benzothiophene-2-carboxamide] | 1000 to 2000 nM | ++ (2.0 μA<ΔICFTR<3.0 μA)
Cc1cc(S(=O)(=O)N2CCO[C@H](c3c(C(N)=O)sc4ccccc34)C2)ccc1F (single isomer, unassigned) [compound 013] | > 2000 nM | ++ (2.0 μA<ΔICFTR<3.0 μA)
Cc1nc2ccc(S(=O)(=O)N3CCO[C@H](c4c(C(N)=O)sc5ccccc45)C3)cc2o1 (single isomer, unassigned) [compound 071] | < 1000 nM | +++ (ΔICFTR >3.0 μA)
CC(C)NC(=O)c1sc2ccccc2c1C1CN(S(=O)(=O)c2cnn(C)c2)CCO1 (centres unmarked) [compound 076, 3-[4-(1-methyl-1H-pyrazole-4-sulfonyl)-morpholin-2-yl]-benzo[b]thiophene-2-carboxylic acid isopropylamide] | > 2000 nM | 
CN(C)C(=O)c1sc2ccccc2c1C1CN(S(=O)(=O)C2CCCC2)CCO1 (centres unmarked) [compound 078, 3-[4-(cyclopentylsulfonyl)-2-morpholinyl]-N,N-dimethyl-1-benzothiophene-2-carboxamide] | > 2000 nM | 
Cc1c(S(=O)(=O)N2CCOC(c3c(C(=O)N(C)C)sc4ccccc34)C2)cnn1C (centres unmarked) [compound 079, 3-{4-[(1,5-dimethyl-1H-pyrazol-4-yl)sulfonyl]-2-morpholinyl}-N,N-dimethyl-1-benzothiophene-2-carboxamide] | > 2000 nM | 
O=C(NCCO)c1sc2ccccc2c1C1CN(S(=O)(=O)c2ccccc2)CCO1 (centres unmarked) [compound 080, N-(2-hydroxyethyl)-3-[4-(phenylsulfonyl)-2-morpholinyl]-1-benzothiophene-2-carboxamide] | > 2000 nM | 
CNC(=O)c1sc2ccccc2c1C1CN(S(=O)(=O)C2CCCC2)CCO1 (centres unmarked) [compound 081, 3-(4-cyclopentanesulfonyl-morpholin-2-yl)-benzo[b]thiophene-2-carboxylic acid methylamide] | > 2000 nM | 
Cc1n[nH]c(C)c1S(=O)(=O)N1CCOC(c2c(C(=O)N(C)C)sc3ccccc23)C1 (centres unmarked) [compound 083, 3-{4-[(3,5-dimethyl-1H-pyrazol-4-yl)sulfonyl]-2-morpholinyl}-N,N-dimethyl-1-benzothiophene-2-carboxamide] | > 2000 nM | 
